In test [1] the test system is miR-155. In words: miR-155 gene expression in BM and tumor of OPC mice. The class given is in vivo, mouse. As to conditions: API 25 mg/kg IP 3 times per week for 2-3 weeks, vs OPC mice. The procedure: The inventors reported recently that API reduced tumor growth in an orthotopic (O) mouse model of PC (OPC)^12, which is a more clinically relevant model^69. To investigate if API targets miR-155 and regulates SHIP-1 expression in the BM and tumor of an OPC mouse model, OPC mice were treated with API at a dose of 25 mg/kg (IP) 3 times per week for 2-3 weeks. […] To generate orthotopic pancreatic models (OPC), anesthetized (1.5-3% isoflurane) mice were injected in the neck of the pancreas, via laparotomy^59, with sterile PBS (CTRL) or 1.25×10^4 Panc02 cells (OPC), in sterile 1×PBS. Once pancreatic tumors were confirmed through ultrasound imaging (Vevo 2100), a cohort of OPC mice received API (25 mg/kg, 100 μL volume) while CTRL and OPC mice received sterile PBS (vehicle), all via IP, three times per week until the end of the study^12. […] The PCR cycling parameters were 95° C. for 10 min followed by 40 cycles of a denaturing step at 95° C. for 15 s and an annealing/extension step at 60° C. for 1 min. All reactions were performed in triplicate. Relative expression of miR-155 was calculated using the comparative […] method normalized to a mouse endogenous control gene snoRNA202 and human endogenous control gene U6 (Assay IDs: 001232 and 001093).

For test [2], the system named is UN-KC-6141 tumors. The test is described as follows: Tumor growth in KC-HPC mice. The class given is in vivo, mouse. As to conditions: API 25 mg/kg IP three times per week. The procedure:
To build on these findings, the inventors then used a novel pancreatic cancer cell line, UN-KC-6141, that resembles human PC due to its expression of a mutated Kras and generated mice harboring these tumor cells, called KC-HPC mice. Such mice were treated with API at a dose of 25 mg/kg (IP) three times per week for 17 days. The inventors examined if API also targets miR-155 and regulates SHIP-1 in the tumors from KC-HPC mouse model. […] All female C57BL/6 mice (6-8 weeks of age) described in this study were purchased from Envigo (Indianapolis, IN, USA) and were acclimatize for one week in a pathogen-free animal facility (University of South Florida (USF) vivarium) before injections with PC cells. To generate heterotopic pancreatic cancer (HPC) models, mice were subcutaneously injected with 1.5×10^5 murine Panc02 (HPC mice) or 5×10^6 murine UN-KC-6141 cells (KC-HPC mice), in sterile 1× phosphate buffer saline (PBS), in the lower ventral abdomen, while control (CTRL) mice received sterile 1×PBS. Once tumors where palpable, API (25 mg/kg, 100 μL volume) treatments (HPC-API and KC-HPC-API), via intraperitoneal (IP) injections, were started while CTRL, HPC and KC-HPC mice received sterile PBS (vehicle) three times per week until the end of the study^12, 55. The HPC models were euthanized 21-28 days post-injection, while the KC-HPC models were euthanized 16-17 days post-injection.

For test [3], the system named is miR-155. The test is described as follows: miR-155 gene expression by RT-qPCR in MiaPaCa-2 cells. The class given is cell-based, human. The conditions noted are these: API 40 μM, 24 h, vs DMSO vehicle. The procedure:
MiR-155 is known to be overexpressed in different cancers, including PC^21, 23. The inventors first assessed whether apigenin could modulate the expression of miR-155 in PC cells. Murine PC cell lines Panc02 and UN-KC-6141 as well as the human PC cell line MiaPaCa-2 were treated with API (40 μM) or DMSO vehicle for 24 h and the expression of miR-155 was examined using RT-qPCR assay. […] Since API is known to inhibit the growth of cancer cells, including PC cells^39-43, 47-50, the same PC cell lines were treated with API (40 μM) or DMSO (vehicle) for 24 h and examined cell viability using MTT assay. […] Moreover, Panc02 and UN-KC-6141 cells were then treated with API at a dose dependent concentration (10, 20, 30, 40, 50 μM) and detected apoptosis using flow cytometry (Annexin V and PI).
miR-155 is implicated in the development of pancreatic tumors from pancreatic intraepithelial neoplasia (PanIN) lesions, and is overexpressed in PC^23. The inventors examined whether the depletion of miR-155 modulated PC viability. Murine and human PC cell lines were transfected with miR-155 inhibitor (i.e., MMU-MIR-155-5P/HSA-MIR-155-5P) and scrambled miRNA at a concentration of 100 nM for 24 h and cell viability determined using an MTT assay. The expression of miR-155 was examined using an RT-qPCR assay as well. […]
For orientation: In qPCR the cycle at which signal appears reflects the starting amount.

Molecules are shown by their SMILES.

On to `O=c1cc(-c2ccc(O)cc2)oc2cc(O)cc(O)c12` [API, 40,5,7-Trihydroxyflavone, 5,7-Dihydroxy-2-(4-hydroxyphenyl)-4-benzopyrone], for which, in test [1], the “miR-155 gene expression in BM” value is reported as “inhibit the overexpression” and the “miR-155 gene expression in pancreatic tumor” value is “significant decrease”. The “tumor burden (tumor volume, tumor area)” value in test [2] is given as “significantly reducing”. Also, the miR-155 gene expression result in test [3] was “significantly suppressed”.

These data come from patent publication US20240415804A1, “METHOD OF TREATING PANCREATIC CANCER” (University of South Florida, priority 2022, published 2024).
